Read-outs that look alike come from different tables or passages of the source. Marks after values point to notes of the source that are not given here.
How the values were obtained:
RBL-2H3 cells [1] = test: Cell viability of RBL-2H3 cells (MTT); conditions: for Viability of RBL-2H3 cells at 200 μg/ml: Table 6, isolated compounds, head prints 200 μg/ml
Protocol: (§6) Cells were cultured using DMEM medium supplemented with 10% FBS, and additional 100 U/mL penicillin and 100 μg/mL streptomycin. The cells were cultured in 10 cm Petri dishes in a 5% CO2 incubator at 37° C., the cells were secondary cultured in 80% confluent trypsin, and then seeded on culture plates at a density of 2×10^5 cells/mL for secretion measurement.
(§7) Measurement on cell viability: RBL-2H3 cells were seeded in a 96-well plate at a concentration of 2×10^4 cells/well overnight, specimens having different concentrations (that is, maca extract, dissolved in DMSO) or untreated controls (1% DMSO in Tyrode buffer; 135 mM NaCl, 5 mM KCl, 1.8 mM CaCl, 1.0 mM MgCl2, 5.6 mM glucose, 20 mM HEPES and 1 mg/ml BSA, pH 7.4) were used to treat the cells, the media was removed from the wells after incubation at 37° C., 5% CO2, and an MTT solution (5 mg/mL) stock solution was diluted 1:10 in the medium and then added to the wells (100 μL per well); Thereafter, the cells were incubated at 37° C., 5% CO2 for 1 hours, the medium was removed, the formed Formazan crystals (which can be formed only in normal healthy cells) were dissolved in 100 μL DMSO, and the absorbance at 574 nm wavelength was measured using a microplate reader in which the plates were gently shaked before the measurement. Cell viability values for the specimens were calculated and indicated as a percentage (%) of the control groups (untreated cells).

RBL-2H3 cells [2] = test: Anti-allergy test: antigen-induced β-hexosaminidase release; type: cell-based; conditions: for Antigen-induced β-hexosaminidase release Inhibition rate (%): Table 4, isolated compounds, concentration not given
Protocol: (§1) Equivalently divided supernatants (50 μL) of control wells and experimental wells were incubated with an equal volume (50 μL) of […] p-NAG prepared in 0.1 M citrate buffer (pH 4.5), in which the buffer is formed as a matrix of released β-hexosaminidase; the reaction, after 1 hour incubation at 37° C., was stopped by adding 100 μL of termination buffer (0.1M Na2/NaHCO3, pH 10.0), and then, the absorbance at a wavelength of 405 nm was measured with a microplate reader. The percentage of inhibiting RBL-2H3 cells from releasing β-hexosaminidase was calculated as the percentage of control (untreated stimulated cells), and azelastine (20 μM) was used as a positive control. The test results are shown in Tables 4 to 6 below, and the corresponding results are indicated as mean±SEM (the test was repeated 3 times), wherein * denotes p<0.05, ** denotes p<0.01, *** denotes p<0.001; - denotes being untested; and N/A denotes that the specimen forms mycelium added to the medium, and accordingly, the results cannot be proven.

RBL-2H3 cells [3] = test: Anti-allergy test: A23187-induced β-hexosaminidase release; type: cell-based; conditions: for A23187-induced β-hexosaminidase release Inhibition rate (%): Table 4, isolated compounds, concentration not given (values equal 100 μM column of Table 6)
Protocol: as §1

human neutrophil [4] = test: Anti-neutrophil inflammation test: superoxide anion generation; type: cell-based; conditions: isolated compounds (10 μM) and positive controls 10 μM, fMLF/CB-activated neutrophils, mean±SEM; for inhibition at 10 µM: Homo sapiens, Neutrophil, read-out: Inhibition rate (%) Superoxide anion generation
Protocol: (§2) Isolation of human neutrophil: According to the standard scheme of […] sedimentation, neutrophils was obtained from peripheral blood, and then, the neutrophils were purified by centrifugation and erythrocyte hypotonic degradation in a Ficoll-Hypaque gradient; and then, it was confirmed by the trypan blue exclusion test that the purified neutrophils contained more than 98% live cells, and the purified neutrophils were suspended in HBSS without calcium at 4° C. (Yang et al., 2013) prior to the test.
The level of superoxide anion generation by neutrophil activation was measured and determined based on the ferrocytochrome c reduction method according to Yang et al., 2013. In other words, human neutrophil cells (6×10^5 cells/mL) were mixed with 0.6 mg/mL of ferrocytochrome c and 1 mmol/L of CaCl at 37° C., and then the cells were treated with the test specimens having different concentrations (that is, maca extract) or DMSO (0.1% as control) for 5 minutes; thereafter, 10 minutes before activation with 100 nM of fMLF, the cells were incubated with cytochalasin B (1 μg/mL) for 3 minutes, changes in absorbance according to the decrease in ferrocytochrome c at a wavelength of […] with continuous stirring were continuously monitored using a spectrophotometer, and reactions were calculated with and without superoxide dismutase (SOD, 100 U/mL) with dividing by the extinction coefficient of the decreased ferrocytochrome c (21.1 mM^−1 cm^−1) reduction, thereby obtaining the difference value.

human neutrophil [5] = test: Anti-neutrophil inflammation test: elastase release; type: cell-based; conditions: isolated compounds (10 μM) and positive controls 10 μM, fMLF/CB-activated neutrophils, mean±SEM; for inhibition at 10 µM: Homo sapiens, Neutrophil, read-out: Inhibition rate (%) Elastase release
Protocol: as §2
The elastase release was used to measure degranulation of azurophilic granules in activated neutrophils (Yang et al., 2013); and the measurement was performed using methoxysuccinyl-Ala-Ala-Pro-Val-p-nitroaniline as an elastase matrix. At 37° C., neutrophils (6×10^5 cells/mL) were added to a mixture of matrix (100 μmol/L) and CaCl2 (1 mmol/L), and treated with the test specimens having different concentrations (that is, maca extract) or DMSO (0.1% as control) for 5 minutes, and then the cells were stimulated by using fMLF (100 nM)/CB (0.5 μg/mL), and changes in absorbance at the 405 nm wavelength were continuously monitored to measure the release of elastase, in which genistein and LY294002 were used as positive controls. The corresponding results are indicated as mean±SEM (the test was repeated 3 or 4 times), in which * denotes p<0.05, ** denotes p<0.01, *** denotes p<0.001; and - denotes being untested.

[6] = system: human CD34-positive endothelial progenitor cells (EPC); test: Pro-angiogenic test: EPC cell growth; type: cell-based; conditions: mean±SEM
Protocol: (§3) Endothelial cell culture: Isolation and culture of human CD34-positive endothelial progenitor cells (EPC) were performed using conventional methods (Chen et al., 2018); human umbilical vein endothelial cells (HUVECs) were purchased from Promo Cell (Heidelberg, Germany); and EPCs and HUVECs were maintained in MV2 medium according to a known protocol (Chung et al., 2013).
(§4) Measurement of cell growth: EPCs and HUVECs were cultured overnight at a density of 5×10^3 cells per well in a 96-well plate, and then, in the presence of the test specimen (that is, maca extract), the original medium was replaced with MV2 minimal medium and incubated for 48 hours. The measurements on EPC cell growth were as described in Yang et al., 2019.
(§5) The results are shown in Table 1 as below, in which corresponding results are indicated as mean±SEM (the test was repeated 3 times as a whole), wherein, compared to the control group (DSMO), * denotes p<0.05, ** denotes p<0.01, *** denotes p<0.001; and - denotes being untested.

RBL-2H3 cells [7] = system: RBL-2H3 cells
Protocol: as §6, §7

[8] = system: human umbilical vein endothelial cells (HUVECs); test: Pro-angiogenic test: HUVEC cell growth; type: cell-based; conditions: VEGF 20 ng/mL, positive control, mean±SEM
Protocol: as §3, §4, §5

[9] = 50 μM of each isolated compound, 48 hours

Compound	Inhibition rate (%) Superoxide anion generation (human neutrophil [4]) [%]	Inhibition rate (%) Elastase release (human neutrophil [5])	Viability of RBL-2H3 cells at 200 μg/ml (RBL-2H3 cells [1]) [%]	Percentage of inhibiting antigen-induced β-hexosaminidase release (%) 10 μM/mL (RBL-2H3 cells [2])	Percentage of inhibiting antigen-induced β-hexosaminidase release (%) 100 μM/mL (RBL-2H3 cells [2]) [%]	Percentage of inhibiting antigen-induced β-hexosaminidase release (%) 500 μM/mL (RBL-2H3 cells [2]) [%]	Antigen-induced β-hexosaminidase release Inhibition rate (%) (RBL-2H3 cells [2])	Percentage of inhibiting A23187-induced β-hexosaminidase release (%) 10 μM/mL (RBL-2H3 cells [3])	Percentage of inhibiting A23187-induced β-hexosaminidase release (%) 100 μM/mL (RBL-2H3 cells [3])	Percentage of inhibiting A23187-induced β-hexosaminidase release (%) 500 μM/mL (RBL-2H3 cells [3])	Cell growth rate (%) EPC [6, 9] [%]	A23187-induced β-hexosaminidase release Inhibition rate (%) (RBL-2H3 cells [3])	further results
CN1CCCC(n2nc(Cc3ccc(Cl)cc3)c3ccccc3c2=O)CC1 (centres unmarked) [Azelastine, reference compound]	–	–	–	–	–	–	–	–	–	–	–	–	Viability of RBL-2H3 cells (RBL-2H3 cells [1]; azelastine 20 μM): 88.0%; inhibition at 20 µM (RBL-2H3 cells [2]; RBL-2H3, azelastine 20 μM, positive control, read-out: Percentage of inhibiting antigen-induced β-hexosaminidase release (%)): 54.3 ± 1.8%; inhibition at 20 µM (RBL-2H3 cells [3]; RBL-2H3, azelastine 20 μM, positive control, read-out: Percentage of inhibiting A23187-induced β-hexosaminidase release (%)): 47.7 ± 3.2%
CC(=O)[C@@H]1CCC(=O)N1Cc1ccccc1 [Compound 1, (5S)-acetyl-1-benzylpyrrolidine-2-ketone]	7.50 ± 1.96	1.59 ± 0.99%	95.3	3.7 ± 1.9%	5.7 ± 2.2	9.0 ± 3.7	9.0 ± 3.7	2.7 ± 1.2%	4.0 ± 1.7%	38.0±3.4%	99 ± 1	–	–
COCc1ccc(C=O)n1Cc1cccc(OC)c1 [Compound 3, 5-methoxymethyl-1-(m-methoxybenzyl)-2-aldehyde pyrrole]	–	–	95.0	13.7 ± 1.9%	10.7 ± 3.3	5.0 ± 4.1	10.7 ± 3.3	3.7 ± 1.5%	4.7 ± 0.7%	12.7 ± 0.7%**	–	4.7 ± 0.7%	–
COc1cccc(Cn2c(C=O)ccc2CO)c1 [Compound 4, 5-hydroxymethyl-1-(m-methoxybenzyl)-2-aldehyde pyrrole]	1.05 ± 0.78	0.00 ± 0.59%	96.0	16.7 ± 6.6%*	10.0 ± 4.1	–	10.0 ± 4.1	8.3 ± 1.0%	6.7 ± 1.4%	–	103 ± 1	6.7 ± 1.4%	–
COCc1ccc(C=O)n1Cc1ccccc1 [Compound 5, 5-methoxymethyl-1-(benzyl)-2-aldehyde pyrrole]	21.59±5.35	3.33 ± 0.50** %	94.0	9.0 ± 4.8%	11.7 ± 5.9	8.3 ± 3.5	11.7 ± 5.9	21.3 ± 3.3%***	51.3 ± 4.6%***	57.7 ± 4.3%***	99 ± 5	51.3 ± 4.6*** %	IC50 (RBL-2H3 cells [3]; Table 6, isolated compounds): 96.1 µM
O=Cc1ccc(CO)n1Cc1ccccc1 [Compound 6, 5-hydroxymethyl-1-(benzyl)-2-aldehyde pyrrole]	5.44 ± 2.18	2.69 ± 0.49** %	100.0	10.3 ± 3.9%	3.7 ± 3.0	0.3 ± 0.3	3.7 ± 3.0	5.7 ± 1.0%	9.7 ± 2.2%	26.0 ± 2.4%***	104 ± 4	9.7 ± 2.2%	–
O=Cc1cc[n+]([O-])cc1Cc1ccccc1 [Compound 7, 3-(benzyl)-1-(hydroxy)-4-aldehyde pyridine]	10.94 ± 1.84	2.48 ± 3.05%	–	11.7 ± 2.6%	8.0 ± 1.2	0.0 ± 0.0	8.0 ± 1.2	2.0 ± 1.6%	6.0 ± 0.8%	18.0 ± 3.4%***	105 ± 3	6.0 ± 0.8%	Viability of RBL-2H3 cells at 200 μg/ml (RBL-2H3 cells [7]): 94.7%
N#CCc1cccc(O)c1 [Compound 8, 3-hydroxy-1-cyanomethylbenzene]	–	–	97.7	–	–	–	–	–	–	–	103 ± 2	–	inhibition at 10 µM (human neutrophil [4]): 0.45 ± 4.35%; inhibition at 10 µM (human neutrophil [5]): 1.78 ± 2.29%; inhibition at 10 µM (RBL-2H3 cells [2]; RBL-2H3, read-out: Percentage of inhibiting antigen-induced β-hexosaminidase release (%) 10 μM/mL): 13.7 ± 3.9%; inhibition at 100 µM (RBL-2H3 cells [2]; RBL-2H3, read-out: Percentage of inhibiting antigen-induced β-hexosaminidase release (%) 100 μM/mL): 13 ± 2.6%; inhibition at 500 µM (RBL-2H3 cells [2]; RBL-2H3, read-out: Percentage of inhibiting antigen-induced β-hexosaminidase release (%) 500 μM/mL): 4 ± 3.3%; inhibition at 10 µM (RBL-2H3 cells [3]; RBL-2H3, read-out: Percentage of inhibiting A23187-induced β-hexosaminidase release (%) 10 μM/mL): 11 ± 0.8%; inhibition at 100 µM (RBL-2H3 cells [3]; RBL-2H3, read-out: Percentage of inhibiting A23187-induced β-hexosaminidase release (%) 100 μM/mL): 8.3 ± 3.4%; inhibition at 500 µM (RBL-2H3 cells [3]; RBL-2H3, read-out: Percentage of inhibiting A23187-induced β-hexosaminidase release (%) 500 μM/mL): 11.7 ± 1.5%
O=c1c(-c2ccc(O)cc2)coc2cc(O)cc(O)c12 [Genistein, reference compound]	–	–	–	–	–	–	–	–	–	–	–	–	inhibition at 10 µM (human neutrophil [4]): 93.37 ± 0.93%; inhibition at 10 µM (human neutrophil [5]): 44.2 ± 3.72%
O=c1cc(N2CCOCC2)oc2c(-c3ccccc3)cccc12 [LY294002, reference compound]	–	–	–	–	–	–	–	–	–	–	–	–	inhibition at 10 µM (human neutrophil [4]): 95.3 ± 2.78%; inhibition at 10 µM (human neutrophil [5]): 72.8 ± 4.03%
VEGF	–	–	–	–	–	–	–	–	–	–	–	–	Cell growth rate (%) HUVEC [8]: 122 ± 2*** %; Cell growth rate (%) EPC ([6]; VEGF 20 ng/mL, positive control): 128 ± 2*** %

From patent US11771729B2, “Maca extract and use thereof” (KAOHSIUNG MEDICAL UNIVERSITY, priority 2021, dated 2023)
